Experimental data as given in US10800791B2, “Triazole ACC inhibitors and uses thereof” (Gilead Apollo, LLC, priority 2015, dated 2020).
Converted amounts (≈) assume the structure as drawn. Read-outs that look alike come from different tables or passages of the source.

Tests used:
Rhizoctonia solani (Rs) = assay: Growth inhibition assay of fungal pathogens, Rs; format: cell-based; conditions: 48 h
Procedure: Compounds of the present invention were evaluated in a growth inhibition assay to determine the ability to control the growth of fungal pathogens, such as Botrtyis cinerea (Bc), Collectotrichum graminicola (Cg), Diplodia maydis (Dm), Fusarium moniliforme (Fm), Fusarium virguliforme (Fv), Phytophthora capsici (Pc), Rhizoctonia solani (Rs), and Septoria tritici (St).
Compounds to be tested were dissolved in DMSO at 2.5 mg/ml to produce compound stock solutions (“stocks”). Stocks were diluted with DMSO by a five-fold dilution in a 96-well stock plate, and two sets of final concentrations of 50, 10, and 2 ppm or 2, 0.4, and 0.08 ppm were obtained in vitro. A set of positive controls was also prepared, with various concentrations of Soraphen (2, 0.4, and 0.08 ppm), Metalaxyl (1.1, 0.22, and 0.04 ppm), and Metconazole (2, 0.4, and 0.08 ppm or 0.2, 0.04, and 0.008 ppm) after the five-fold dilutions. Negative controls on each plate included 2% DMSO, water, and a blank (media+2% DMSO).
Fungal spores were isolated from previously sub-cultured plates of Botrtyis cinerea (Bc), Collectotrichum graminicola (Cg), Diplodia maydis (Dm), Fusarium moniliforme (Fm), Fusarium virguliforme (Fv), Phytophthora capsici (Pc), and Septoria tritici (St). The isolated spores were diluted to individual concentrations with a 17% V8 liquid media. For Rhizoctonia solani (Rs) and Pythium irregulare, 1.5 mm mycelial plugs were used in place of spores and/4 Potato Dextrose Broth (PDB) was used for dilution. The spore concentrations and plug sizes were based on growth curves generated at 48 hours for each pathogen.
In a second 96-well plate, the spores or mycelial plugs, media, diluted compound solutions, and controls were combined. Once the compound was added, a true final concentration of compound in each well was measured by an OD600 reading, which adjusted for any compound precipitation that might have occurred in the well. Plate readings were repeated at both 24 and 48 hours. The blank negative control was used as a background subtraction. Additional visual ratings were performed at both 24 and 48 hours for checking on precipitation and confirming efficacy. Visual and OD600 ratings of the compounds at 48 hours were compared to the 2% DMSO negative control, and the percent of pathogen growth inhibition was determined based on those values.

human (hACC2) = human (hACC2) (Homo sapiens, UniProt O00763); assay: In vitro ACC inhibition assay (ADP-Glo), hACC2; format: biochemical; conditions: 5 nM ACC2, 20 μM ATP, 20 μM acetyl-CoA
human (hACC2), sequence (O00763 whole entry): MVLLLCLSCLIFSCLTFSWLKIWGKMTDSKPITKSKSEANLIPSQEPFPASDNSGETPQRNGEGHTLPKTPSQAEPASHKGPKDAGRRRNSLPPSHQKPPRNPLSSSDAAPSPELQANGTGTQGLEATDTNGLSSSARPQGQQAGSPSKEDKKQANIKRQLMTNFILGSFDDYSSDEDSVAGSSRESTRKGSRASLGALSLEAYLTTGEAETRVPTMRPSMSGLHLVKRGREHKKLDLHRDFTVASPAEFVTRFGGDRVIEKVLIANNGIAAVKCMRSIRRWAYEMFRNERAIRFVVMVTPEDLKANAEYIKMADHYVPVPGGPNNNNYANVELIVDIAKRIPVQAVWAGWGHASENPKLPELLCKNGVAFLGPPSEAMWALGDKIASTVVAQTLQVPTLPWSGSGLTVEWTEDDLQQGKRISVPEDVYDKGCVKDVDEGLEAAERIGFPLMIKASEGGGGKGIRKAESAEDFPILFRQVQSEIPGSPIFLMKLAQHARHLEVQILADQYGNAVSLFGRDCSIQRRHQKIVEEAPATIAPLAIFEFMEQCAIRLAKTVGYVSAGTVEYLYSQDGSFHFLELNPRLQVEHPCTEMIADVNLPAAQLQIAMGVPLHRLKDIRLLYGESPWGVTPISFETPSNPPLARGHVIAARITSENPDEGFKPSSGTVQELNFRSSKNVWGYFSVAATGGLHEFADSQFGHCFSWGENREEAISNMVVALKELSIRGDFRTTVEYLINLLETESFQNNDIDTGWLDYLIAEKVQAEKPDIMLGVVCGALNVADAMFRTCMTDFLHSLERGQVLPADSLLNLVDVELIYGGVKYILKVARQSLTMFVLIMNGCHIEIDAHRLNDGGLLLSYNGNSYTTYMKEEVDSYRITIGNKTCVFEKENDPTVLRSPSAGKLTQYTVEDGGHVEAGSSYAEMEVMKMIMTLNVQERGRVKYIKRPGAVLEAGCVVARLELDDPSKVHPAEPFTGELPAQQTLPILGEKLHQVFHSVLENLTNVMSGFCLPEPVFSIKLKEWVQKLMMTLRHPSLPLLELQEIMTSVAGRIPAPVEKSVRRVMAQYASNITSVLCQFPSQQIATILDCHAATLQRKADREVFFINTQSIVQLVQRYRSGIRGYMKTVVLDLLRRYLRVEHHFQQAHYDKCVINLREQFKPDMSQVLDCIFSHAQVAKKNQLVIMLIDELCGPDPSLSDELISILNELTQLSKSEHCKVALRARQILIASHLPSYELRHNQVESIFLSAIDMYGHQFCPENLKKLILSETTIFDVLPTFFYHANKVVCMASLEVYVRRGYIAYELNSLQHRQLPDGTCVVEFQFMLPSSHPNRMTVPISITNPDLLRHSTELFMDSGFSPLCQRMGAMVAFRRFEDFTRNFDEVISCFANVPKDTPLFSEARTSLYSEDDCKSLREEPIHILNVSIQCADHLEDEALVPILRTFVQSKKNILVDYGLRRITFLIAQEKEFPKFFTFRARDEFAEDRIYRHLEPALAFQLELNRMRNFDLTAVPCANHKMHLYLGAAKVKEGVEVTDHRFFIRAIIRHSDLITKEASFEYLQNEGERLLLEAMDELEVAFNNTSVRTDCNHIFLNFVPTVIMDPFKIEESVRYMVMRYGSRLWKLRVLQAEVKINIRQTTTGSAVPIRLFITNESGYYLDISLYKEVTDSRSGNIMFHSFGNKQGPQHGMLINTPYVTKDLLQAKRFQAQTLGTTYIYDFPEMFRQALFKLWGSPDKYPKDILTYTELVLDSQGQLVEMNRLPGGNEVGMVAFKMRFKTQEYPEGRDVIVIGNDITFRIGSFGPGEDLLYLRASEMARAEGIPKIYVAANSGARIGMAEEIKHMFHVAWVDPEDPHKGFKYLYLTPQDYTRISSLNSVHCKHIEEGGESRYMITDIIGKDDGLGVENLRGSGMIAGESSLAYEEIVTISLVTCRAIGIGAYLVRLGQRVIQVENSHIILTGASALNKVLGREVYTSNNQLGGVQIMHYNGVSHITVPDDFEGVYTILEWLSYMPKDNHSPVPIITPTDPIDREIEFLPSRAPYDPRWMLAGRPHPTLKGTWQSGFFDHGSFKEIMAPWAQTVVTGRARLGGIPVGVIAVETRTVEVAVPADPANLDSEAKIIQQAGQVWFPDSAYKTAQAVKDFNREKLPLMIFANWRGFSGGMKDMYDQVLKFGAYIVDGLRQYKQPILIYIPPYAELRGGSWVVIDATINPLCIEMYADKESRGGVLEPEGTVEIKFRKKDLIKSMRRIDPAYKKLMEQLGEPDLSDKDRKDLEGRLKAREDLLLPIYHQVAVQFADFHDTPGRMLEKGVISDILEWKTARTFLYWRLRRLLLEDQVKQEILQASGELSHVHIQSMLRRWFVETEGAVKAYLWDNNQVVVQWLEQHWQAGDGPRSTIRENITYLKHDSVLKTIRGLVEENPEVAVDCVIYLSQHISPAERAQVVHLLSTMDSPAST
Procedure: The detailed procedure is as follows. […] 10 μL ADP glo reagent was added. […] 20 μL kinase detection reagent was added.

fungal (fACC2) = fungal (fACC2) (UniProt Q00955); conditions: read-out: fACC2 (in vitro ACC2 Inhibition Assay, IC50); Table 2b, additional results; ADP-Glo, 5 nM ACC2, 20 μM ATP, 20 μM acetyl-CoA
fungal (fACC2), sequence (Q00955 whole entry): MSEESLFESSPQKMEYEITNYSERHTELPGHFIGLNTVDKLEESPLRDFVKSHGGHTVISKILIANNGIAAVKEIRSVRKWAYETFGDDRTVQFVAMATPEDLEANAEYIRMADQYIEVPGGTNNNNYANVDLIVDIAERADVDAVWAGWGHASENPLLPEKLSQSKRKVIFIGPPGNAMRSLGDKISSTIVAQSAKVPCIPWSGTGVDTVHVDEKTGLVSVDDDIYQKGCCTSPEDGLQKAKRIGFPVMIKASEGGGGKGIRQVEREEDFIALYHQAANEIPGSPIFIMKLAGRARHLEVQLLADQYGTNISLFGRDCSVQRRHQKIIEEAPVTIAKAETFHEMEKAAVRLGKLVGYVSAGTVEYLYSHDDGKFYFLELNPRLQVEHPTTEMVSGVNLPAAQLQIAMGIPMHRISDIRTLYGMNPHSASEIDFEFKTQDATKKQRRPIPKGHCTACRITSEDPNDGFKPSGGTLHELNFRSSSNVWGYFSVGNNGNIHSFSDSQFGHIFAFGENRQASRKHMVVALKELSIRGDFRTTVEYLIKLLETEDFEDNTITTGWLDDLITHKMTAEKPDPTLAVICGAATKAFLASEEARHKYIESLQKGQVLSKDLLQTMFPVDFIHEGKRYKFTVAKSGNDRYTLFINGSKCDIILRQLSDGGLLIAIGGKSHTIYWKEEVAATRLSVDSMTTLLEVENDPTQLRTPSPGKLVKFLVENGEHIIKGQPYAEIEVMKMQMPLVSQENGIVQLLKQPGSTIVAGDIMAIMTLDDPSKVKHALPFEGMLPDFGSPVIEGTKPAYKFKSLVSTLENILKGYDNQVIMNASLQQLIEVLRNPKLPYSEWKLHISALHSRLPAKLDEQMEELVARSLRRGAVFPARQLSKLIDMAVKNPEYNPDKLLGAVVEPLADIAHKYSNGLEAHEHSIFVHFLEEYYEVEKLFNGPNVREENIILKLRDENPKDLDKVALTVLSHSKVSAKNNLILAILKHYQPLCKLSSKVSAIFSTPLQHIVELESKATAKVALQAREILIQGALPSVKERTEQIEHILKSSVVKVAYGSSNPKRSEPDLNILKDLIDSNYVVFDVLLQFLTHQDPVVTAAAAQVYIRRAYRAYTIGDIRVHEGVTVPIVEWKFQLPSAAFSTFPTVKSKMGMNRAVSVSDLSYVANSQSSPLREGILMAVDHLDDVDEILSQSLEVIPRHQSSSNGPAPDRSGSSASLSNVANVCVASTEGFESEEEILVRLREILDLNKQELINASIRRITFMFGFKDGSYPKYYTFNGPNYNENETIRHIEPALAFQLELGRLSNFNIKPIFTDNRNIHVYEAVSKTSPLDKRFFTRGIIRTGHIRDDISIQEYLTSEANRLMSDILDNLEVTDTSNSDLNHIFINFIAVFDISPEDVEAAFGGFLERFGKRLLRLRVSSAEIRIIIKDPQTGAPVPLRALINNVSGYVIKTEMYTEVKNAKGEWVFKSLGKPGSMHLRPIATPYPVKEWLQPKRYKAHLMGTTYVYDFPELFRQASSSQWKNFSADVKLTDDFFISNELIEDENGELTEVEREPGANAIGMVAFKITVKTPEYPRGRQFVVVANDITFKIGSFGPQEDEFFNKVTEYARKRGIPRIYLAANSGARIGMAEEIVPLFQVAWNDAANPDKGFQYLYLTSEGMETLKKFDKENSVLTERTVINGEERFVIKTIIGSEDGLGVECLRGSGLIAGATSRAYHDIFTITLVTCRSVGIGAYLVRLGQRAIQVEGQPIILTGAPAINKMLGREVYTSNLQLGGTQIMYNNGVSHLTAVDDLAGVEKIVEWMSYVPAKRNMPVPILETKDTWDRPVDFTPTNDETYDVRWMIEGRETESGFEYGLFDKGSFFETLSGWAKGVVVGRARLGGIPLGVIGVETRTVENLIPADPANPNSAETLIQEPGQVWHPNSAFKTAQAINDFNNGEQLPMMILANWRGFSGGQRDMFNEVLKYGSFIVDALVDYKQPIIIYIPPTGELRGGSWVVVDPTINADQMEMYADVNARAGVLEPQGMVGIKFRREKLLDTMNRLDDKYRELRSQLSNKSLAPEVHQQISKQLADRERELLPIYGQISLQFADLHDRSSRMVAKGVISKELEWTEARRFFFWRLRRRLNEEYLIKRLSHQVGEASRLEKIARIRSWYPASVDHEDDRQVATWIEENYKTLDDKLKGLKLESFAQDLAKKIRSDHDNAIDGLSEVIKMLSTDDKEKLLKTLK

C. krusei = assay: Antifungal Activity Assay (broth microtiter MIC), C. krusei; format: cell-based, Candida krusei; conditions: Pichia kudriavzevii, ATCC6258, 48 h
How it was run: (§1)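 MIC read by eye at 48 h, comparing challenged wells with the growth control. Yeasts grown overnight on Sabouraud dextrose agar at 35° C, suspended in RPMI 1640+MOPS and added at 2.5×10^3 CFU/mL final, following CLSI M27-A3.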

C. parapsilosis = assay: Antifungal Activity Assay (broth microtiter MIC), C. parapsilosis; format: cell-based, Candida parapsilosis; conditions: Lodderomyces parapsilosis, ATCC22019, 48 h
How it was run: as §1

C. albicans = assay: Antifungal Activity Assay (broth microtiter MIC), C. albicans; format: cell-based, Candida albicans; conditions: Candida albicans, ATCC90028, 48 h
How it was run: as §1

[1] = read-out: Concentration at 90% Inhibition Rs, Rhizoctonia solani, mycelial plugs, growth inhibition at 48 hours vs 2% DMSO control
[2] = read-out: Concentration at 90% Inhibition Rs, Rhizoctonia solani, mycelial plugs, growth inhibition vs 2% DMSO control at 48 hours
[3] = mycelial plugs, growth inhibition at 48 hours vs 2% DMSO control, read-out: Concentration at 90% Inhibition Rs
[4] = mycelial plugs, growth inhibition vs 2% DMSO control at 48 hours, read-out: Concentration at 90% Inhibition Rs
[5] = Table 3b (additional results), ATCC 6258, 3 replicates, MIC recorded at 48 h, read-out: MIC, C. krusei ATCC 6258
[6] = Table 3b (additional results), ATCC 22019, 3 replicates, MIC recorded at 48 h, read-out: MIC, C. parapsilosis ATCC 22019
[7] = Table 3b (additional results), ATCC 90028, 3 replicates, MIC recorded at 48 h, read-out: MIC, C. albicans ATCC 90028

Structure (SMILES) | IC50 (human (hACC2); Table 2a) [nM] | IC50 (human (hACC2); Table 2b, additional results) [nM] | IC50 (fungal (fACC2)) [nM] | MIC (C. krusei; [5]) [µg/mL] | MIC (C. parapsilosis; [6]) [µg/mL] | MIC (C. albicans; [7]) [µg/mL] | other results
COc1ccc(F)cc1[C@H](Cn1c(=O)n(C(C)(C)C(=O)NC(C)C)c(=O)c2c(C)c(-n3nccn3)sc21)OCC(C)C [Compound I-10, (R)-2-(1-(2-(5-fluoro-2-methoxyphenyl)-2-isobutoxyethyl)-5-methyl-2,4-dioxo-6-(2H-1,2,3-triazol-2-yl)-1,4-dihydrothieno[2,3-d]pyrimidin-3(2H)-yl)-N-isopropyl-2-methylpropanamide] | 10 to 40 | 10 to 40 |  |  |  |  | IC90 (Rhizoctonia solani (Rs); [1]): 0.4 µg/mL (≈ 0.666 µM); IC90 (Rhizoctonia solani (Rs); [2]): 0.4 µg/mL (≈ 0.666 µM)
COc1ccccc1[C@H](Cn1c(=O)n(C(C)(C)C(=O)NCC(C)C)c(=O)c2c(C)c(-n3nccn3)sc21)OC1CCOCC1 [Compound I-13, (R)—N-isobutyl-2-(1-(2-(2-methoxyphenyl)-2-((tetrahydro-2H-pyran-4-yl)oxy)ethyl)-5-methyl-2,4-dioxo-6-(2H-1,2,3-triazol-2-yl)-1,4-dihydrothieno[2,3-d]pyrimidin-3(2H)-yl)-2-methylpropanamide] | 5 to 10 | 5 to 10 |  |  |  |  | IC90 (Rhizoctonia solani (Rs); [3]): 0.08 µg/mL (≈ 0.128 µM); IC90 (Rhizoctonia solani (Rs); [4]): 0.08 µg/mL (≈ 0.128 µM)
COc1ccccc1[C@H](Cn1c(=O)n(C(C)(C)C(=O)NC(C)C)c(=O)c2c(C)c(-n3nccn3)sc21)OC1CCOCC1 [Compound I-16, (R)—N-isopropyl-2-(1-(2-(2-methoxyphenyl)-2-((tetrahydro-2H-pyran-4-yl)oxy)ethyl)-5-methyl-2,4-dioxo-6-(2H-1,2,3-triazol-2-yl)-1,4-dihydrothieno[2,3-d]pyrimidin-3(2H)-yl)-2-methylpropanamide] | 5 to 10 | 5 to 10 |  |  |  |  | IC90 (Rhizoctonia solani (Rs); [1]): 0.4 µg/mL (≈ 0.655 µM); IC90 (Rhizoctonia solani (Rs); [2]): 0.4 µg/mL (≈ 0.655 µM)
COc1ccccc1[C@H](Cn1c(=O)n(C(C)(C)C(=O)N2CCCCC2)c(=O)c2c(C)c(-n3nccn3)sc21)OC1CCOCC1 [Compound I-17, (R)-1-(2-(2-methoxyphenyl)-2-((tetrahydro-2H-pyran-4-yl)oxy)ethyl)-5-methyl-3-(2-methyl-1-oxo-1-(piperidin-1-yl)propan-2-yl)-6-(2H-1,2,3-triazol-2-yl)thieno[2,3-d]pyrimidine-2,4(1H,3H)-dione] | 5 to 10 | 5 to 10 |  |  |  |  | IC90 (Rhizoctonia solani (Rs); [1]): 0.08 µg/mL (≈ 0.126 µM); IC90 (Rhizoctonia solani (Rs); [2]): 0.08 µg/mL (≈ 0.126 µM)
COc1ccccc1[C@H](Cn1c(=O)n(C(C)(C)C(=O)N2CCCC2)c(=O)c2c(C)c(-n3nccn3)sc21)OC1CCOCC1 [Compound I-18, (R)-1-(2-(2-methoxyphenyl)-2-((tetrahydro-2H-pyran-4-yl)oxy)ethyl)-5-methyl-3-(2-methyl-1-oxo-1-(pyrrolidin-1-yl)propan-2-yl)-6-(2H-1,2,3-triazol-2-yl)thieno[2,3-d]pyrimidine-2,4(1H,3H)-dione] | 5 to 10 | 5 to 10 |  |  |  |  | IC90 (Rhizoctonia solani (Rs); [3]): 0.08 µg/mL (≈ 0.128 µM); IC90 (Rhizoctonia solani (Rs); [4]): 0.08 µg/mL (≈ 0.128 µM)
COc1ccccc1[C@H](Cn1c(=O)n(C(C)(C)C(=O)NC2CCC2)c(=O)c2c(C)c(-n3nccn3)sc21)OC1CCOCC1 [Compound I-20, (R)—N-cyclobutyl-2-(1-(2-(2-methoxyphenyl)-2-((tetrahydro-2H-pyran-4-yl)oxy)ethyl)-5-methyl-2,4-dioxo-6-(2H-1,2,3-triazol-2-yl)-1,4-dihydrothieno[2,3-d]pyrimidin-3(2H)-yl)-2-methylpropanamide] | 5 to 10 | 5 to 10 |  |  |  |  | IC90 (Rhizoctonia solani (Rs); [3]): 0.08 µg/mL (≈ 0.128 µM); IC90 (Rhizoctonia solani (Rs); [4]): 0.08 µg/mL (≈ 0.128 µM)
COc1ccccc1[C@H](Cn1c(=O)n(C(C)(C)C(=O)NC2CCCCC2)c(=O)c2c(C)c(-n3nccn3)sc21)OC1CCOCC1 [Compound I-21, (R)—N-cyclohexyl-2-(1-(2-(2-methoxyphenyl)-2-((tetra-hydro-2H-pyran-4-yl)oxy)ethyl)-5-methyl-2,4-dioxo-6-(2H-1,2,3-triazol-2-yl)-1,4-dihydrothieno[2,3-d]pyrimidin-3(2H)-yl)-2-methylpropanamide] | 5 to 10 | 5 to 10 |  |  |  |  | IC90 (Rhizoctonia solani (Rs); [1]): 0.4 µg/mL (≈ 0.615 µM); IC90 (Rhizoctonia solani (Rs); [2]): 0.4 µg/mL (≈ 0.615 µM)
CCNC(=O)C(C)(C)n1c(=O)c2c(C)c(-n3nccn3)sc2n(C[C@H](OC2CCOCC2)c2cc(F)ccc2OC)c1=O [Compound I-22, (R)—N-ethyl-2-(1-(2-(5-fluoro-2-methoxyphenyl)-2-((tetrahydro-2H-pyran-4-yl)oxy)ethyl)-5-methyl-2,4-dioxo-6-(2H-1,2,3-triazol-2-yl)-1,4-dihydrothieno[2,3-d]pyrimidin-3(2H)-yl)-2-methylpropanamide] | 5 to 10 | 5 to 10 |  |  |  |  | IC90 (Rhizoctonia solani (Rs); [3]): 0.4 µg/mL (≈ 0.651 µM); IC90 (Rhizoctonia solani (Rs); [4]): 0.4 µg/mL (≈ 0.651 µM)
COc1ccc(F)cc1[C@@H](Cn1c(=O)n(C(C)(C)C(=O)NC(C)C)c(=O)c2c(C)c(-n3nccn3)sc21)OC(=O)C(C)(C)O [Compound I-263] |  | 10 to 40 | 0.3 to 1 |  |  |  | MIC (C. krusei; read-out: MIC, C. krusei ATCC 6258, Table 3b (additional results), 3 replicates, MIC recorded at 48 h): 0.25 to 1 µg/mL (≈ 0.396 to 1.59 µM); MIC (C. parapsilosis; read-out: MIC, C. parapsilosis ATCC 22019, Table 3b (additional results), 3 replicates, MIC recorded at 48 h): 1.01 to 2 µg/mL (≈ 1.6 to 3.17 µM); MIC (C. albicans; read-out: MIC, C. albicans ATCC 90028, Table 3b (additional results), 3 replicates, MIC recorded at 48 h): 0.25 to 1 µg/mL (≈ 0.396 to 1.59 µM)
CCOC(=O)[C@H]1CC[C@@H](O[C@@H](Cn2c(=O)n(C(C)(C)C(=O)NC(C)C)c(=O)c3c(C)c(-n4nccn4)sc32)c2cc(F)ccc2OC)CC1 [Compound I-264] |  | 10 to 40 | 1 to 5 | 0.06 to 0.249 (≈ 0.0859 to 0.356 µM) | 0.25 to 1 (≈ 0.358 to 1.43 µM) | 0.25 to 1 (≈ 0.358 to 1.43 µM) | 
COc1ccc(F)cc1[C@H](Cn1c(=O)n(C(C)(C)C(=O)NC(C)C)c(=O)c2c(C)c(-n3nccn3)sc21)O[C@H]1CC[C@@H](C(=O)O)CC1 [Compound I-265] |  | 10 to 40 | 1 to 5 | 0.06 to 0.249 (≈ 0.0895 to 0.371 µM) | 0.25 to 1 (≈ 0.373 to 1.49 µM) | 0.25 to 1 (≈ 0.373 to 1.49 µM) | 
CCOC(=O)[C@H]1CC[C@H](O[C@@H](Cn2c(=O)n(C(C)(C)C(=O)NC(C)C)c(=O)c3c(C)c(-n4nccn4)sc32)c2cc(F)ccc2OC)CC1 [Compound I-269] |  | > 40 | 1 to 5 | 0.06 to 0.249 (≈ 0.0859 to 0.356 µM) | 0.25 to 1 (≈ 0.358 to 1.43 µM) | 0.25 to 1 (≈ 0.358 to 1.43 µM) | 
COc1ccc(F)cc1[C@H](Cn1c(=O)n(C(C)(C)C(=O)NC(C)C)c(=O)c2c(C)c(-n3nccn3)sc21)O[C@H]1CC[C@H](C(=O)O)CC1 [Compound I-270] |  | 10 to 40 | 0.3 to 1 | 0.06 to 0.249 (≈ 0.0895 to 0.371 µM) | 0.25 to 1 (≈ 0.373 to 1.49 µM) | 0.25 to 1 (≈ 0.373 to 1.49 µM) | 
COc1ccc(F)cc1[C@H](Cn1c(=O)n(C(C)(C)C(=O)NC(C)C)c(=O)c2c(C)c(-n3nccn3)sc21)OC[C@H](C)C(=O)O [Compound I-273] |  | > 40 | 0.3 to 1 | 0.25 to 1 (≈ 0.396 to 1.59 µM) | 1.01 to 2 (≈ 1.6 to 3.17 µM) | 0.25 to 1 (≈ 0.396 to 1.59 µM) | 
COc1ccc(F)cc1[C@H](Cn1c(=O)n(C(C)(C)C(=O)NC(C)C)c(=O)c2c(C)c(-n3nccn3)sc21)OC[C@@H](C)C(=O)O [Compound I-274] |  | > 40 | 0.3 to 1 | 0.25 to 1 (≈ 0.396 to 1.59 µM) | 1.01 to 2 (≈ 1.6 to 3.17 µM) | 0.25 to 1 (≈ 0.396 to 1.59 µM) | 
